In patent US9365522B2, “Pyrazole amide derivative” (AMGEN INC., priority 2015, dated 2016):

Biological target: T1, human RORγ-LBD (Homo sapiens, UniProt P51449)
T1 construct: made in house; host or cells: E. coli (BL-21)
T1 sequence (P51449 262-518): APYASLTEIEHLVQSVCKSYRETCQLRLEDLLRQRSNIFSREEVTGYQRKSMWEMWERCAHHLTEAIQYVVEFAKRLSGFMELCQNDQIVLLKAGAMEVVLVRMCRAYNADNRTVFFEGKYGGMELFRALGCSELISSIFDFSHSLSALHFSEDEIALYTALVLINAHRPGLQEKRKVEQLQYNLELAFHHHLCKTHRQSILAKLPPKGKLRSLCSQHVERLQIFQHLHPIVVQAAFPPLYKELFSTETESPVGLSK
Test: ROR gamma coactivator peptide recruitment Alphascreen assay (RORγ-LBD binding to GRIP1 coactivator peptide)
Type: biochemical
Settings: 5 nM human RORγ-LBD, 30 nM 7-β-hydroxycholesterol, 50 nM biotinylated GRIP1 coactivator peptide, overnight incubation at room temperature; read-out: result (pIC50, RORγ coactivator peptide recruitment Alphascreen assay) (converted)
Outline: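 Alphascreen proximity read-out after overnight room-temperature incubation, yielding pIC50 from 1-in-2 compound series (2.5% DMSO final). Mixture: 50 nM biotin-GRIP1 peptide, 30 nM 7-β-hydroxycholesterol agonist, 5 nM recombinant 6×His:Flag human RORγ-LBD (aa 262-518), 50 mM HEPES pH 7.4.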

Row | Structure (SMILES) | IC50
1 | CC1(C)CC[C@@H](CN(CCc2c(Cl)cncc2Cl)C(=O)c2cnn([C@H]3CC[C@](C)(C(=O)O)CC3)c2C(F)(F)F)O1 [Example 680, trans-4-(4-((2-(3,5-dichloro-4-pyridinyl)ethyl)(((2S)-5,5-dimethyltetrahydro-2-furanyl)methyl)carbamoyl)-5-(trifluoromethyl)-1H-pyrazol-1-yl)-1-methylcyclohexanecarboxylic acid] | 0.0479 µM
2 | C[C@]1(CN(CCc2c(Cl)cncc2Cl)C(=O)c2cnn([C@H]3CC[C@](C)(C(=O)O)CC3)c2C(F)(F)F)CCCO1 [Example 681, trans-4-(4-((2-(3,5-dichloro-4-pyridinyl)ethyl)(((2R)-2-methyltetrahydro-2-furanyl)methyl)carbamoyl)-5-(trifluoromethyl)-1H-pyrazol-1-yl)-1-methylcyclohexanecarboxylic acid] | 0.00955 µM
3 | C[C@@]1(CN(CCc2c(Cl)cncc2Cl)C(=O)c2cnn([C@H]3CC[C@](C)(C(=O)O)CC3)c2C(F)(F)F)CCCO1 [Example 682, trans-4-(4-((2-(3,5-dichloro-4-pyridinyl)ethyl)(((2S)-2-methyltetrahydro-2-furanyl)methyl)carbamoyl)-5-(trifluoromethyl)-1H-pyrazol-1-yl)-1-methylcyclohexanecarboxylic acid] | 0.0501 µM
4 | C[C@@H]1C[C@H](n2ncc(C(=O)N(CC(=O)c3c(Cl)cccc3Cl)CC3CC(C)(C)C3)c2C(F)(F)F)CC[C@@H]1C(=O)O [Example 683, (1S,2R,4R)-4-(4-((2-(2,6-dichlorophenyl)-2-oxoethyl)((3,3-dimethylcyclobutyl)methyl)carbamoyl)-5-(trifluoromethyl)-1H-pyrazol-1-yl)-2-methylcyclohexanecarboxylic acid] | 0.00891 µM
5 | C[C@H]1C[C@@H](n2ncc(C(=O)N(CC(=O)c3c(Cl)cccc3Cl)CC3CC(C)(C)C3)c2C(F)(F)F)CC[C@H]1C(=O)O [Example 684, (1R,2S,4S)-4-(4-((2-(2,6-dichlorophenyl)-2-oxoethyl)((3,3-dimethylcyclobutyl)methyl)carbamoyl)-5-(trifluoromethyl)-1H-pyrazol-1-yl)-2-methylcyclohexanecarboxylic acid] | 0.0138 µM
6 | CC1(C)C[C@H](CN(CC(=O)c2c(Cl)cncc2Cl)C(=O)c2cnn([C@H]3CC[C@](C)(C(=O)O)CC3)c2C(F)(F)F)O1 [Example 685, trans-4-(4-((2-(3,5-dichloro-4-pyridinyl)-2-oxoethyl)(((2R)-4,4-dimethyl-2-oxetanyl)methyl)carbamoyl)-5-(trifluoromethyl)-1H-pyrazol-1-yl)-1-methylcyclohexanecarboxylic acid] | 0.0977 µM
7 | CC1(C)C[C@@H](CN(CC(=O)c2c(Cl)cncc2Cl)C(=O)c2cnn([C@H]3CC[C@](C)(C(=O)O)CC3)c2C(F)(F)F)O1 [Example 686, trans-4-(4-((2-(3,5-dichloro-4-pyridinyl)-2-oxoethyl)(((2S)-4,4-dimethyl-2-oxetanyl)methyl)carbamoyl)-5-(trifluoromethyl)-1H-pyrazol-1-yl)-1-methylcyclohexanecarboxylic acid] | 0.0912 µM
8 | Cc1cc(Cl)c(C(=O)CN(CC(C)(C)C)C(=O)c2cnn([C@H]3CC[C@](C)(C(=O)O)CC3)c2C(F)(F)F)c(Cl)n1 [Example 687, trans-4-(4-((2-(2,4-dichloro-6-methyl-3-pyridinyl)-2-oxoethyl)(2,2-dimethylpropyl)carbamoyl)-5-(trifluoromethyl)-1H-pyrazol-1-yl)-1-methylcyclohexanecarboxylic acid] | 0.0148 µM
9 | CC1(C)C[C@H](Cc2c(Cl)cncc2Cl)N(C(=O)c2cnn([C@H]3CC[C@](C)(C(=O)O)CC3)c2C(F)(F)F)C1 [Example 688] | 0.11 µM
10 | Cc1cc(Cl)c(C(=O)CN(C(=O)c2cnn([C@H]3CC[C@](C)(C(=O)O)CC3)c2C(F)(F)F)[C@H]2C[C@@H](C(C)(C)C)C2)c(Cl)c1 [Example 689, trans-4-(4-((2-(2,6-dichloro-4-methylphenyl)-2-oxoethyl)(cis-3-(2-methyl-2-propanyl)cyclobutyl)carbamoyl)-5-(trifluoromethyl)-1H-pyrazol-1-yl)-1-methylcyclohexanecarboxylic acid] | 0.00417 µM
11 | C[C@]1(C(=O)O)CC[C@H](n2ncc(C(=O)N(CC(=O)c3c(Cl)cc(F)cc3Cl)CC3(F)CC3)c2C(F)(F)F)CC1 [Example 690, trans-4-(4-((2-(2,6-dichloro-4-fluorophenyl)-2-oxoethyl)((1-fluorocyclopropyl)methyl)carbamoyl)-5-(trifluoromethyl)-1H-pyrazol-1-yl)-1-methylcyclohexanecarboxylic acid] | 0.00676 µM
12 | CC1(CN(CC(=O)c2c(Cl)cc(F)cc2Cl)C(=O)c2cnn([C@H]3CC[C@](C)(C(=O)O)CC3)c2C(F)(F)F)CCC1 [Example 691, trans-4-(4-((2-(2,6-dichloro-4-fluorophenyl)-2-oxoethyl)((1-methylcyclobutyl)methyl)carbamoyl)-5-(trifluoromethyl)-1H-pyrazol-1-yl)-1-methylcyclohexanecarboxylic acid] | 0.00166 µM
13 | CC(C)(CN(CC(=O)c1c(Cl)cncc1Cl)C(=O)c1cnn([C@H]2CC[C@](C)(C(=O)O)CC2)c1C(F)(F)F)C(F)(F)F [Example 692, trans-4-(4-((2-(3,5-dichloro-4-pyridinyl)-2-oxoethyl)(3,3,3-trifluoro-2,2-dimethylpropyl)carbamoyl)-5-(trifluoromethyl)-1H-pyrazol-1-yl)-1-methylcyclohexanecarboxylic acid] | 0.00324 µM
14 | Cc1cc(C)c(C(=O)CN(CC(C)(C)C)C(=O)c2cnn([C@H]3CC[C@](C)(C(=O)O)CC3)c2C(F)(F)F)c(Cl)n1 [Example 693, trans-4-(4-((2-(2-chloro-4,6-dimethyl-3-pyridinyl)-2-oxoethyl)(2,2-dimethylpropyl)carbamoyl)-5-(trifluoromethyl)-1H-pyrazol-1-yl)-1-methylcyclohexanecarboxylic acid] | 0.0437 µM
15 | C[C@]1(C(=O)O)CC[C@H](n2ncc(C(=O)N(CC(=O)c3c(Cl)cc(F)cc3Cl)CC3CCC3)c2C(F)(F)F)CC1 [Example 694, trans-4-(4-((cyclobutylmethyl)(2-(2,6-dichloro-4-fluorophenyl)-2-oxoethyl)carbamoyl)-5-(trifluoromethyl)-1H-pyrazol-1-yl)-1-methylcyclohexanecarboxylic acid] | 0.00398 µM
16 | C[C@]1(C(=O)O)CC[C@H](n2ncc(C(=O)N(CC(=O)c3c(Cl)cc(F)cc3Cl)CC3CC3)c2C(F)(F)F)CC1 [Example 695, trans-4-(4-((cyclopropylmethyl)(2-(2,6-dichloro-4-fluorophenyl)-2-oxoethyl)carbamoyl)-5-(trifluoromethyl)-1H-pyrazol-1-yl)-1-methylcyclohexanecarboxylic acid] | 0.01 µM
17 | CC1(CN(CC(=O)c2c(Cl)cc(F)cc2Cl)C(=O)c2cnn([C@H]3CC[C@](C)(C(=O)O)CC3)c2C(F)(F)F)CCCCC1 [Example 696, trans-4-(4-((2-(2,6-dichloro-4-fluorophenyl)-2-oxoethyl)((1-methylcyclohexyl)methyl)carbamoyl)-5-(trifluoromethyl)-1H-pyrazol-1-yl)-1-methylcyclohexanecarboxylic acid] | 0.00162 µM
18 | CC(C)(C)CN(CC(=O)c1c(Cl)cnc(Cl)c1Cl)C(=O)c1cnn([C@H]2CC[C@](C)(C(=O)O)CC2)c1C(F)(F)F [Example 697, trans-4-(4-((2,2-dimethylpropyl)(2-oxo-2-(2,3,5-trichloro-4-pyridinyl)ethyl)carbamoyl)-5-(trifluoromethyl)-1H-pyrazol-1-yl)-1-methylcyclohexanecarboxylic acid] | 0.0129 µM
19 | C[C@]1(C(=O)O)CC[C@H](n2ncc(C(=O)N(CC(=O)c3c(Cl)cc(F)cc3Cl)CC3CCCC3)c2C(F)(F)F)CC1 [Example 698, trans-4-(4-((cyclopentylmethyl)(2-(2,6-dichloro-4-fluorophenyl)-2-oxoethyl)carbamoyl)-5-(trifluoromethyl)-1H-pyrazol-1-yl)-1-methylcyclohexanecarboxylic acid] | 0.00209 µM
20 | CC(C)(C)[C@H]1C[C@@H](N(CC(=O)c2c(Cl)cncc2Cl)C(=O)c2cnn([C@H]3CC[C@](C)(C(=O)O)CC3)c2C(F)(F)F)C1 [Example 699, trans-4-(4-((2-(3,5-dichloro-4-pyridinyl)-2-oxoethyl)(cis-3-(2-methyl-2-propanyl)cyclobutyl)carbamoyl)-5-(trifluoromethyl)-1H-pyrazol-1-yl)-1-methylcyclohexanecarboxylic acid] | 0.0398 µM
21 | CC(C)CCN(CC(=O)c1c(Cl)cncc1Cl)C(=O)c1cnn([C@H]2CC[C@](C)(C(=O)O)CC2)c1C(F)(F)F [Example 700, trans-4-(4-((2-(3,5-dichloro-4-pyridinyl)-2-oxoethyl)(3-methylbutyl)carbamoyl)-5-(trifluoromethyl)-1H-pyrazol-1-yl)-1-methylcyclohexanecarboxylic acid] | 0.0132 µM
22 | Cc1cc(C)c(C(=O)CN(Cc2cc(F)cc(F)c2)C(=O)c2cnn([C@H]3CC[C@](C)(C(=O)O)CC3)c2C(F)(F)F)c(Cl)n1 [Example 702, trans-4-(4-((2-(2-chloro-4,6-dimethyl-3-pyridinyl)-2-oxoethyl)(3,5-difluorobenzyl)carbamoyl)-5-(trifluoromethyl)-1H-pyrazol-1-yl)-1-methylcyclohexanecarboxylic acid] | 0.00794 µM
